This note sets out measurements from ChEMBL document CHEMBL3639124, “Oxadiazole inhibitors of leukotriene production” (2013).

SMILES strings stand for the structures.

A word on the IC50: it is the point on the concentration scale where inhibition reaches its midpoint. A high value points to weaker potency.

This assay deals with T1, Arachidonate 5-lipoxygenase-activating protein (Homo sapiens, UniProt P20292).
T1 sequence (P20292 whole entry): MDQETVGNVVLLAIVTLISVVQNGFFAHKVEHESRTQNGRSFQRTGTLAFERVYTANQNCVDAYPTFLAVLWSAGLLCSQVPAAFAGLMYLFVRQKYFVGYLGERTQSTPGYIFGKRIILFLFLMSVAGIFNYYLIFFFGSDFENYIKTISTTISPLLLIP
Briefly: Binding Assay: Compounds area assessed for the ability to bind to FLAP in a binding assay that measures compound-specific displacement of an iodinated (125I) FLAP inhibitor via a scintillaion proximity assay format (adapted from S. Charleson et. al., Mol. Pharmacol., 1992,41 873-879).
`COCCn1cc(-c2nc(C3(c4ccc(-c5cnc(N)nc5)nc4)CCC3)no2)cn1` came in with an IC50 of 17 nM.
`COC(=O)[C@@H]1CN(c2ccc(-c3nc(C4(c5ccc(-c6cnc(N)nc6)nc5)CCC4)no3)cn2)CCN1`: the IC50 turned out to be 3.7 nM.
For `COCCNc1cnc(-c2nc(C3(c4ccc(-c5cnc(N)nc5)nc4)CCC3)no2)cn1`, the concentration for half-maximal inhibition (IC50) stood at 3.2 nM.
Consider `CCNc1cnc(-c2nc(C3(c4ccc(-c5cnc(N)nc5)nc4)CCC3)no2)cn1`, for which the IC50 is 2.4 nM.
The compound `CN1CCN(c2cnc(-c3nc(C4(c5ccc(-c6cnc(N)nc6)nc5)CCC4)no3)cn2)CC1` showed a half-inhibitory concentration (IC50) of 1.8 nM.
As to `Nc1ncc(-c2ccc(C3(c4noc(-c5ccc6[nH]ncc6c5)n4)CCC3)cn2)cn1`, the IC50 turned out to be 4 nM.
For `CC(C)(C)NC(=O)Cn1cc(-c2nc(C3(c4ccc(-c5cnc(N)nc5)nc4)CCC3)no2)cn1` the value was 14 nM; for `CCNC(=O)Cn1cc(-c2nc(C3(c4ccc(-c5cnc(N)nc5)nc4)CCC3)no2)cn1`, 100 nM.
In turn, `N#CCn1cc(-c2nc(C3(c4ccc(-c5cnc(N)cn5)nc4)CCC3)no2)cn1` displayed an IC50 of 48 nM.
